How the values were obtained:
[1] = target: T1, recombinant human SYK360-635 (Homo sapiens, UniProt P43405); assay: SYK kinase assay, 33P ATP incorporation into biotinylated peptide; type: biochemical; settings: 0.5 nM SYK aa 360-635, ATP 20 μM, peptide 5 μM, 15 min at 30° C.; read-out: IC50 h-syk (360-635)-baculovirus-c
T1 construct: truncated construct of Spleen Tyrosine Kinase aa 360-635; made in house
Method: SYK Assay Information Determination of IC50 of Spleen Tyrosine Kinase (SYK) Inhibition:
SYK kinase assay is a standard kinase assay adapted to a 96 well plate format. This assay is performed in 96-well format for IC50 determination with 8 samples which represented 10 half log dilutions and a 40 μL reaction volume. The assay measures the incorporation of radiolabeled ^33P γATP into an N-terminally biotinylated peptide substrate, derived from naturally occurring phosphoacceptor consensus sequence (Biotin-11aa DY*E). Phosphorylated products were detected upon termination of reactions with EDTA and the addition of Streptavidin coated beads. […]
The unbound radionucleotides were washed under vacuum with 3×250 μL 2M NaCl; 2×250 μL 2M NaCl+1% phosphoric acid; 1×250 μL H2O. After the last wash membrane/plates were transferred to an adaptor plate, heat dried for 15 min at 60° C., and 50 μL scintillation cocktail was added to each well and 4 h later the amount of radioactivity was counted in a top counter.
The percent inhibition was calculated based on the uninhibited enzyme rate: % Inhibition=100/(1+(IC50/Inhibitor cone)^n) • The IC50 was calculated using a non-linear curve fit with XLfit software (ID Business Solution Ltd., Guilford, Surrey, UK).

[2] = target: JAK3: Recombinant human kinase domain (Homo sapiens, UniProt P52333); assay: JAK3 kinase inhibition, radioactive end-point assay; type: biochemical; settings: 0.5 nM or 0.2 nM JAK3, ATP 1.5 uM, peptide 50 uM, 20 minutes, room temperature; read-out: IC50 h-jak3-sf21-c
Sequence of JAK3: Recombinant human kinase domain (P52333 822-1111 limits assumed): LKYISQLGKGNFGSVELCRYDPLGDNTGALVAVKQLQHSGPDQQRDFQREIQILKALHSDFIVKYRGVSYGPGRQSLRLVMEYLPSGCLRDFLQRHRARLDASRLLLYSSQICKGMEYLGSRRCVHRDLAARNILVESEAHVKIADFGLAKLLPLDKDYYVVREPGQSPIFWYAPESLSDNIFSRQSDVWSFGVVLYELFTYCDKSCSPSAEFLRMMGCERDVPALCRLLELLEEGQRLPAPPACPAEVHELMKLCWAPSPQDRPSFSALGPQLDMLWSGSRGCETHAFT
Description: (§1) Determination of IC50 of Janus Kinase (JAK) Inhibition: […]

[3] = target: JAK2: Recombinant human kinase domain (Homo sapiens, UniProt O60674); assay: JAK2 kinase inhibition, radioactive end-point assay; type: biochemical; settings: 1 nM JAK2, ATP 1.5 uM, peptide 50 uM, 20 minutes, room temperature; read-out: IC50 h-jak2-sf21-c
Sequence of JAK2: Recombinant human kinase domain (O60674 849-1124 limits assumed): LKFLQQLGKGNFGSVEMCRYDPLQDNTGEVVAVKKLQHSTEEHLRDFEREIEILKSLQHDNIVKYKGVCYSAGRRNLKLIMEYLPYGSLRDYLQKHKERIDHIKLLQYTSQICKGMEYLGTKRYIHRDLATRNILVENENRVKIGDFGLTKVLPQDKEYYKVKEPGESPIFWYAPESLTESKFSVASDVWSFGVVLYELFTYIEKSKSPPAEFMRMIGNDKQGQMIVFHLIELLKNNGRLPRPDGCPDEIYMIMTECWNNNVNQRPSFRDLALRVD
Description: as §1

[4] = target: JAK1: Recombinant human kinase domain (Homo sapiens, UniProt P23458); assay: JAK1 kinase inhibition, radioactive end-point assay; type: biochemical; settings: 5 nM JAK1, ATP 10 uM, peptide 50 uM, 40 minutes, room temperature; read-out: IC50 h-jak1-sf21-c
Sequence of JAK1: Recombinant human kinase domain (P23458 875-1153 limits assumed): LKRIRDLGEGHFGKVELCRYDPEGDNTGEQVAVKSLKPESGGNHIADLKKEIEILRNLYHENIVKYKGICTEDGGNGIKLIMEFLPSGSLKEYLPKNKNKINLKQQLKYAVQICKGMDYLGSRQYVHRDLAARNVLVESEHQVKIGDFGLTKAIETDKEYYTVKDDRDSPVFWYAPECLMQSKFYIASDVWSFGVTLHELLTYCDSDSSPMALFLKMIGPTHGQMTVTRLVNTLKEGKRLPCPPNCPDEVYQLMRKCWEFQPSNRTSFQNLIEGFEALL
Description: as §1

| IC50 [1] [nM] | IC50 [2] [nM] | IC50 [3] [nM] | IC50 [4] [nM] | melting point [°C] | SMILES |
| --- | --- | --- | --- | --- | --- |
| 162 | 6.8 | 107 |  |  | COc1cc(-c2cnc3[nH]cc(C(=O)C4(C)CCCCC4)c3n2)cc(OC)c1OC [Example I-117, (1-Methyl-cyclohexyl)-[2-(3,4,5-trimethoxy-phenyl)-5H-pyrrolo[2,3-b]pyrazin-7-yl]-methanone] |
| 1310 | 24.1 | 3440 | 2100 |  | CC(C)(C)C(=O)c1c[nH]c2ncc(-c3cccc(N4CCCC4)c3)nc12 [Example I-64, 2,2-Dimethyl-1-[2-(3-pyrrolidin-1-yl-phenyl)-5H-pyrrolo[2,3-b]pyrazin-7-yl]-propan-1-one] |
| 36 | 4.6 | 10.8 | 90 |  | COc1cc(-c2cnc3[nH]cc(C(=O)NCC(C)OC)c3n2)cc(OC)c1OC (stereo not shown) [Example I-82, 2-(3,4,5-Trimethoxy-phenyl)-5H-pyrrolo[2,3-b]pyrazine-7-carboxylic acid (2-methoxy-propyl)-amide] |
| 317 | 56.1 | 455 |  |  | COc1cc(-c2cnc3[nH]cc(C(=O)C(C)(C)C)c3n2)cc(OC)c1OC [Example I-12, 2,2-Dimethyl-1-[2-(3,4,5-trimethoxy-phenyl)-5H-pyrrolo[2,3-b]pyrazin-7-yl]-propan-1-one] |

Further lines, the compound ahead of its results:

| SMILES | IC50 [1] [nM] | IC50 [2] [nM] | IC50 [3] [nM] | IC50 [4] [nM] | melting point [°C] |
| --- | --- | --- | --- | --- | --- |
| Cn1nccc1-c1ccc(-c2cnc3[nH]cc(C(=O)C(C)(C)C)c3n2)cc1 [Example 281, 2,2-Dimethyl-1-{2-[4-(2-methyl-2H-pyrazol-3-yl)-phenyl]-5H-pyrrolo[2,3-b]pyrazin-7-yl}-propan-1-one] |  |  |  |  | 257 to 258 |
| COc1cc(-c2cnc3[nH]cc(C(=O)C(C)(C)OC)c3n2)cc(OC)c1OC [Example 131, 2-Methoxy-2-methyl-1-[2-(3,4,5-trimethoxy-phenyl)-5H-pyrrolo[2,3-b]pyrazin-7-yl]-propan-1-one] |  |  |  |  | 237.8 to 239.1 |
